Source: patent US7141591B2, “1,2,4-oxadiazole derivatives as hPPAR alpha agonists” (SmithKline Beecham Corporation, priority 2000, dated 2006)

Columns and labels:
human PPAR gamma = molecular target: T1, human PPAR gamma (Homo sapiens, UniProt P37231); assay: Transient transfection (transactivation) assay in CV-1 cells, hPPAR gamma; type: cell-based; conditions: PPAR transactivation activity, GAL4 chimera, concentration giving 50% of maximum activity, read-out: human γEC50
T1 construct: expressed in transfected cells; host or cells: CV-1 cells
T1 sequence (P37231 238-503 limits assumed): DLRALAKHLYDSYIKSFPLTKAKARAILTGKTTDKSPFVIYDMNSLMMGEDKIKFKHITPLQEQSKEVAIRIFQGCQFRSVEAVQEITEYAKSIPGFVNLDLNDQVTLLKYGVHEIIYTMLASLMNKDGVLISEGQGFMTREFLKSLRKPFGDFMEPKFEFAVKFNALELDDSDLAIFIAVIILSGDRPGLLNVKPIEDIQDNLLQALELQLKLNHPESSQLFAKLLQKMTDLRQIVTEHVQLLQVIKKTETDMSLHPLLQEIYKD
Excerpt: (§1) Compounds were screened for functional potency in transient transfection assays in CV-1 cells for their ability to activate the PPAR subtypes (transactivation assay). A previously established chimeric receptor system was utilized to allow comparison of the relative transcriptional activity of the receptor subtypes on the same target gene and to prevent endogenous receptor activation from complicating the interpretation of results. See, for example, Lehmann, J. M.; Moore, L. B.; Smith-Oliver, T. A.; Wilkison, W. O.; Willson, T. M.; Kliewer, S. A., An antidiabetic thiazolidinedione is a high affinity ligand for peroxisome proliferator-activated receptor γ (PPARγ), J. Biol. Chem., 1995, 270, 12953–6. The ligand binding domains for murine and human PPAR alpha, PPAR gamma, and PPAR delta were each fused to the yeast transcription factor GAL4 DNA binding domain. CV-1 cells were transiently transfected with expression vectors for the respective PPAR chimera along with a reporter construct containing five copies of the GAL4 DNA binding site driving expression of secreted placental alkaline phosphatase (SPAP) and β-galactosidase. After 16 h, the medium was exchanged to DME medium supplemented with 10% delipidated fetal calf serum and the test compound at the appropriate concentration. After an additional 24 h, cell extracts were prepared and assayed for alkaline phosphatase and β-galactosidase activity. Alkaline phosphatase activity was corrected for transfection efficiency using the β-galactosidase activity as an internal standard (see, for example, Kliewer, S. A., et. al. Cell 83, 813–819 (1995)). Rosiglitazone (BRL 49653) was used as a positive control in the hPPAR gamma assay. The positive control in the hPPAR alpha assays was 2-methyl-2-[4-{[(4-methyl-2-[4-trifluoromethylphenyl]-thiazol-5-yl-carbonyl)amino]methyl}-phenoxy]propionic acid. The positive control for PPAR delta assays was 2-{2-methyl-4-[({4-methyl-2-{trifluoromethyl)phenyl]-1,3-thiazol-5-yl}methyl)sulfanyl]phenoxy}acetic acid.

human PPAR alpha = molecular target: T2, human PPAR alpha (Homo sapiens, UniProt Q07869); assay: Transient transfection (transactivation) assay in CV-1 cells, hPPAR alpha; type: cell-based; conditions: PPAR transactivation activity, GAL4 chimera, concentration giving 50% of maximum activity, read-out: human αEC50
T2 construct: expressed in transfected cells; host or cells: CV-1 cells
T2 sequence (Q07869 239-466 limits assumed): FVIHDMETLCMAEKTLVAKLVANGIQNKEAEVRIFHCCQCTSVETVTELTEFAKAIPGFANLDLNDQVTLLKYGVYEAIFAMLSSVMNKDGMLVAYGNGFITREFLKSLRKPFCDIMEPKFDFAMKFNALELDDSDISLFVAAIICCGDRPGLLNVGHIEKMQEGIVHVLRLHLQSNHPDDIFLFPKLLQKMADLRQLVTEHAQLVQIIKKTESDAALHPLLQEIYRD
Excerpt: as §1

human PPAR delta = molecular target: T3, human PPAR delta (Homo sapiens, UniProt Q03181); assay: Transient transfection (transactivation) assay in CV-1 cells, hPPAR delta; type: cell-based; conditions: PPAR transactivation activity, GAL4 chimera, concentration giving 50% of maximum activity, read-out: human δEC50
T3 construct: expressed in transfected cells; host or cells: CV-1 cells
T3 sequence (Q03181 211-439 limits assumed): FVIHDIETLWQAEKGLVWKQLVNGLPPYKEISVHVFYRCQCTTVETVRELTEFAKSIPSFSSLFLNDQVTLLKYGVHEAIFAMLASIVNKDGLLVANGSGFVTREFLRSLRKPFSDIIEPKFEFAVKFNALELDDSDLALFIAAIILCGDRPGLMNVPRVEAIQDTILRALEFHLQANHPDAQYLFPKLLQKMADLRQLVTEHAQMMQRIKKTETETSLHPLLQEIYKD
Excerpt: as §1

Compound | melting point [°C] | EC50 (human PPAR gamma) [µM] | EC50 (human PPAR alpha) [µM] | EC50 (human PPAR delta) [µM]
Cc1cc(OCc2nc(-c3ccc(C(C)(C)C)cc3)no2)ccc1OC(C)(C)C(=O)O [Example 10, 2-methyl-2-[4-(3-(4-tert-butyl-phenyl)-[1,2,4]oxadiazol-5-ylmethoxy]-2-methyl-phenoxy]-propionic acid] | 155 to 157 | 11.4 | 0.024 | –
CC(C)(Oc1ccc(OCc2nc(-c3ccc(C(C)(C)C)cc3)no2)cc1)C(=O)O [Example 13, 2-methyl-2-[4-(3-(4-tert-butyl-phenyl)-[1,2,4]oxadiazol-5-ylmethoxy]-phenoxy]-propionic acid] | 138 to 140 | 0.85 | 0.092 | –
CC(C)c1ccc(-c2nc(COc3ccc(OC(C)(C)C(=O)O)cc3)no2)cc1 [Example 16, 2-methyl-2-{4-[5-(4-isopropyl-phenyl)-[1,2,4]oxadiazol-3-ylmethoxy]-phenoxy}propionic acid] | – | 10 | 0.029 | 8.4
Cc1cc(OCc2nc(-c3ccc(C(F)(F)F)cc3)no2)ccc1OC(C)(C)C(=O)O [Example 12, 2-methyl-2-{4-[3-(4-trifluoromethyl-phenyl)-[1,2,4]oxadiazol-5-ylmethoxy]-2-methyl-phenoxy}-propionic acid] | 170 | 4.3 | 0.036 | 0.311
CC(C)(Oc1ccc(OCc2nc(-c3ccc(C(F)(F)F)cc3)no2)cc1)C(=O)O [Example 15, 2-methyl-2-{4-[3-(4-trifluoromethyl-phenyl)-[1,2,4]oxadiazol-5-ylmethoxy]-phenoxy}-propionic acid] | 164 | 10 | 0.098 | 4.51
CC(C)(Oc1ccc(OCc2noc(-c3ccc(C(C)(C)C)cc3)n2)cc1)C(=O)O [Example 17, 2-methyl-2-{4-[5-(4-tert-butyl-phenyl)-[1,2,4]oxadiazol-3-ylmethoxy]-phenoxy}propionic acid] | – | 10 | 0.04 | –
CC(C)c1ccc(-c2noc(COc3ccc(OC(C)(C)C(=O)O)cc3)n2)cc1 [Example 14] | 117 | 10 | 0.077 | –
Cc1cc(OCc2nc(-c3ccc(C(C)C)cc3)no2)ccc1OC(C)(C)C(=O)O [Example 11] | 138 | 10 | 0.059 | 9.31
